For one experiment, the system named is eHAP MUS81−/− cells. Briefly: Cell viability assay (CellTiter-Glo), eHAP MUS81−/− cells. It counts as cell-based, human. The settings on record: single agent. As to the method: (§1) For analysis of cell viability following exposure to olaparib (Selleckchem), deoxyribonucleosides and DNPH1i (N6-benzyladenosine, Carbosynth), cells were seeded in 96-well plates at a density of 100-500 cells per well. Twenty-four hours post-seeding, drug treatments were initiated, and cells were continuously exposed until termination of the experiment. Cell viability was measured using CellTiter-Glo (Promega). The surviving fractions were measured, and drug sensitivity curves were plotted using GraphPad Prism. The following nucleosides were purchased from commercial sources: dU (2′-deoxyuridine), hdU (5-hydroxy-2′-deoxyuridine), hmdU (5-hydroxymethyl-2′-deoxyuridine), mdC (5-methyl-2′-deoxycytidine), hmdC (5-hydroxymethyl-2′-deoxycytidine), cadC (5-carboxy-2-deoxycytidine), fodC (5-formyl-2-deoxycytidine), dl (2′-deoxyinosine), dX (2′-deoxyxanthosine), 8odG (8-oxo-2′-deoxyguanosine), hmU (5 hydroxymethyluridine), hmC (5-hydroxymethyl-cytidine). fodU (5-formyl-2′-deoxyuridine) was synthesized as previously described (Guo et al Org. Biomol. Chem. 11, 1610-1613 (2013).

Experiment [1] concerns eHAP MUS81−/−DNPH1−/− cells. As to the kind of experiment: Cell viability assay (CellTiter-Glo), eHAP MUS81−/−DNPH1−/− cells. It counts as cell-based, human. The settings on record: nucleoside 200 nM, 6 days, vs MUS81 k/o. As to the method: as §1
Experiment [2] deals with SUM149 BRCA1mut (parental) cells. As to the kind of experiment: Cell viability assay, SUM149 BRCA1mut (parental) cells. It is filed as cell-based, human. To be noted: 8 days. As to the method: as §1
In experiment [3] the test system is SUM149 WT (revertant) cells. Briefly: Cell viability assay, SUM149 WT (revertant) cells. The settings on record: hmdU with DNPH1i 0.5 μM or olaparib, 8 days. It is filed as cell-based, human. How it is done:
as §1

In a further experiment the test system is DLD1 BRCA2−/− cells. Briefly: Cell viability assay, DLD1 BRCA2−/− cells. It counts as cell-based. The settings on record: olaparib 10 nM or hmdU 2 μM, 10 days. How it is done: as §1
Experiment [4] deals with BRCA2/DNPH1 double knock-out cell lines (DLD1). As to the kind of experiment: Cell viability assay, DLD1 BRCA2/DNPH1 double knock-out cells. The settings on record: absence of a PARP inhibitor; two independent double knock-out lines. It counts as cell-based. How it is done: as §1
Experiment [5] concerns DLD1 WT, BRCA2 and DNPH1 single knock-out cell lines. Briefly: Cell viability assay, DLD1 WT and single knock-out cells. It is filed as cell-based. The settings on record: highest dose tested. How it is done:
as §1

For experiment [6], the system named is SUM149 BRCA1mut/53BP1−/− cells. As to the kind of experiment: Cell viability assay, SUM149 BRCA1mut/53BP1−/− cells. It counts as cell-based, human. To be noted: PARPi-resistant cells; hmdU 2 μM + olaparib; ratio of EC50 values.
Experiment [7] has as its system SUM149 BRCA1mut/PARP1−/− cells. Briefly: Cell viability assay, SUM149 BRCA1mut/PARP1−/− cells. It counts as cell-based, human. The settings on record: PARPi-resistant cells; hmdU 2 μM + olaparib; ratio of EC50 values.
Another experiment concerns DCTD k/o cell lines. As to the kind of experiment: Cell viability, DCTD k/o cell lines. It is filed as cell-based. As to the method: as §1
Experiment [8] has as its system eHAP WT and DNPH1 k/o cells. Briefly: Nucleoside composition of genomic DNA by LC-MS. It counts as cell-based, human. The settings on record: cells treated with exogenous hmdU; DNPH1 k/o vs WT. As to the method:
Cells (5×10^7) were collected and DNA extracted using Gentra Puregene Cell Kit (Qiagen) supplemented with RNAse (Qiagen) and 100 mM tetrahydrouridine (Merck). DNA was digested to mononucleosides by modification of a published protocol (41). Briefly, reactions were carried out in […] buffer containing […] DNA, 50 mM Tris pH 9.0, 20 mM NaCl, 5 mM MgCl2, 1 kU Benzonase, 1 U phosphodiesterase I and 10 U FastAP alkaline phosphatase for 48 hrs at 37° C. The samples were then precipitated with chloroform and labelled standards of deoxyadenosine (dA), deoxycytidine (dC), deoxyguanosine (dG) and deoxythymidine (dT) were spiked for normalization of the signal response from modified deoxynucleosides. Polar phases were analyzed by LC-MS/MS using a using a reverse phase column (100×2.1 mm, 3 μm, Fortis C18, Fortis Technologies) on a Dionex UltiMate LC system coupled to a TSQ Quantiva™ Triple Quadrupole (Thermo Scientific) mass spectrometer with a HESI 11 (heated electrospray ionization) source. The mobile phases consisted of water containing 0.1% acetic acid (mobile phase A) and acetonitrile (mobile phase B). A gradient of 12 min 0-12% B and 1 min 12-60% B was used for the separation of all the modified nucleosides. […]

For experiment [9], the system named is PARP1 chromatin association in eHAP SMUG1−/− cells. As to the kind of experiment: PARP trapping assay (chromatin fractionation), eHAP SMUG1−/− cells. It is filed as cell-based, human. The settings on record: MMS 0.01% then olaparib 10 μM 4 h.
Description: Briefly, 500.000 cells were seeded onto six-well plates, and treated with 350 nM hmdU or 0.01% MMS for 24 hours at which point cells were either left untreated or treated with 10 μM olaparib for 4 h. Cells were fractionated with the Subcellular Protein Fractionation kit for Cultured Cells (ThermoFisher #78840) according to the manufacturer's instructions. Soluble and chromatin fractions were analysed by immunoblotting for PARP1 (Cell Signaling #9542, rabbit) and yH2AX (Millipore, JBW301) antibodies. Incubation with primary antibody was followed by incubation with a horseradish peroxidase-conjugated secondary antibody and chemiluminescent detection of proteins (Amersham Pharmacia, Cardiff, UK).

We go through two compounds from patent US20220339179A1, “TREATMENT OF HR DEFICIENT CANCER” (THE FRANCIS CRICK INSTITUTE LIMITED, priority 2019, published 2022).

As to `O=c1[nH]c(=O)n([C@H]2C[C@H](O)[C@@H](CO)O2)cc1CO` [hmdU, 5-hydroxymethyl-2′-deoxyuridine], the “effect on viability, agent alone” value in the experiment with eHAP MUS81−/− cells is on record as “no effect on viability”; in [2] (olaparib 250 nM or hmdU 2 μM), “limited effect on viability”; in the experiment on DLD1 BRCA2−/− cells it was “limited effect on viability”. For the same compound, in [1], the “sensitivity of MUS81/DNPH1 k/o cells to nucleoside treatment (cell viability)” value is “hypersensitive”. The “synthetic lethality of hmdU with DNPH1 inhibition” value in experiment [2] (DNPH1i 0.5 μM) is listed as “to the same extent as Olaparib alone”. In addition, in experiment [2] (hmdU 2 μM + olaparib vs olaparib alone, ratio of EC50 values revertant vs BRCA1mut), the “expansion of the therapeutic window of olaparib by addition of hmdU” value was determined as 4 fold. In addition, the “effect of treatment on isogenic WT cells” value in experiment [3] was “unaffected”. Moreover, the “cells killed by hmdU” value in [4] is “over 95%”. Further, the “sensitivity to hmdU” value in experiment [5] is recorded as “resistant to the highest dose tested”. The “expansion of the therapeutic window of olaparib by hmdU” value in [6] and in [7] was 3 fold in each case. For the same compound, the “resistance of DCTD k/o cells to nucleoside treatment” value in the experiment with DCTD k/o cell lines is reported as “not”. Moreover, the “increase in genomic hmdU in DNPH1 k/o cells after hmdU treatment” value in experiment [8] amounted to 3 fold.

On to `COS(C)(=O)=O` [MMS, methyl methanesulfonate], for which the “difference in PARP trapping or DNA damage signaling between WT and SMUG1-deficient cells” value in experiment [9] is “did not observe any difference”.
